Reference: US6700013B2, “Tricyclic fused heterocycle compounds, process for preparing the same and use thereof” (Nippon Suisan Kaisha, Ltd., priority 1999, dated 2004)

Row | Compound | melting point
1 | CC1(C)C(=O)c2cc(O)c(O)cc2Sc2ccccc21 [Example 31] | 194.2 to 196.1 °C
2 | CCC1(CC)C(=O)c2cc(O)c(O)cc2Sc2ccccc21 [Example 3] | 238 to 244.1 °C
3 | Nc1cccc(-c2ccc3c(c2)CC(=O)c2c(O)cc(O)cc2S3)c1 [Example 83] | > 200 °C (dec.)
4 | CCC1C(=O)c2cc(O)c(O)cc2Sc2cc(-c3ccco3)ccc21 (stereo not shown) [Example 153] | 242.9 to 248.4 °C
5 | CCC1C(=O)c2c(O)cc(O)cc2Sc2ccc(SC)cc21 (stereo not shown) [Example 35] | 167.4 to 168.2 °C
6 | CCCCc1ccc2c(c1)CC(=O)c1c(O)cc(O)cc1S2 [Example 53] | 106.9 to 108.1 °C
7 | CCC1C(=O)c2c(O)cc(O)cc2Sc2ccccc21 (stereo not shown) [Example 38] | 175 to 177.5 °C
8 | O=C1Cc2cc(Br)ccc2Sc2cc(O)c(O)cc21 [Example 22] | 285.7 °C (dec.)
9 | O=C1c2c(O)cc(O)cc2Sc2ccccc2C1Cc1ccccc1 (stereo not shown) [Example 40] | 67.5 to 68.3 °C
10 | CCC1C(=O)c2cc(O)c(O)cc2Sc2cc(SC)ccc21 (stereo not shown) [Example 46] | 179.8 to 183 °C
11 | CCc1ccc2c(c1)CC(=O)c1c(O)cc(O)cc1S2 [Example 48] | 179.1 to 180.1 °C
12 | CCC1=Cc2cc(O)c(O)cc2Sc2ccccc21 [Example 143] | 37.9 to 41.5 °C
13 | O=C1Cc2ccc(-c3cc4ccccc4o3)cc2Sc2cc(O)cc(O)c21 [Example 92] | 251.6 to 253.8 °C
14 | CCC1C(=O)c2cc(O)c(O)cc2Sc2cc(-c3cccc(Cl)c3)ccc21 (stereo not shown) [Example 157] | 175.5 to 176.8 °C
15 | CCC1C(=O)c2cc(O)c(O)cc2Sc2cc(-c3ccccc3)ccc21 (stereo not shown) [Example 154] | 274.3 to 276.1 °C
16 | O=C(Cc1ccc2c(c1)CC(=O)c1c(O)cc(O)cc1O2)C1=CCCCC1 [Example 66] | 173.8 to 175.8 °C
17 | CCC1C(=O)c2cc(O)c(O)cc2Sc2ccc(-c3cc4ccccc4o3)cc21 (stereo not shown) [Example 161] | 277.4 to 279.2 °C
18 | CC1C(=O)c2ccc(O)cc2Sc2ccccc21 (stereo not shown) [Example 41] | 190 to 191.6 °C
19 | O=C1Cc2cc(Cl)ccc2Sc2cc(O)cc(O)c21 [Example 15] | 217.9 to 221.6 °C
20 | CCC1C(=O)c2cc(O)c(O)cc2Sc2cc(-c3ccc(C)cc3)ccc21 (stereo not shown) [Example 160] | 271.9 to 273.3 °C
21 | CCC1C(=O)c2cc(O)c(O)cc2Sc2cc(Br)ccc21 (stereo not shown) [Example 45] | 227.2 to 229.9 °C
22 | CCC1C(=O)c2cc(O)c(O)cc2Sc2ccc(-c3cc4ccccc4s3)cc21 (stereo not shown) [Example 172] | 251.4 to 255.5 °C (dec.)
23 | CCC1C(=O)c2cc(O)c(O)cc2Sc2cc(-c3ccc(O)cc3)ccc21 (stereo not shown) [Example 177] | 155.4 to 159.4 °C
24 | CC1C(=O)c2c(O)cc(O)cc2Sc2ccccc21 (stereo not shown) [Example 39] | 152.1 to 153.4 °C
25 | CSc1ccc2c(c1)Sc1cc(O)cc(O)c1C(=O)C2 [Example 19] | 182.3 to 184.4 °C
26 | CCC1C(=O)c2cc(O)c(O)cc2Sc2cc(-c3cccc(C(F)(F)F)c3)ccc21 (stereo not shown) [Example 156] | 109.7 to 111.9 °C
27 | CCC1C(=O)c2cc(O)c(O)cc2Sc2cc(-c3ccccc3C)ccc21 (stereo not shown) [Example 158] | 179.2 to 181.1 °C

Next, values leading:

Row | melting point | Compound
28 | 197.2 to 199.3 °C | Nc1cccc(-c2ccc3c(c2)CCc2c(O)cc(O)cc2O3)c1 [Example 119]
29 | 151.7 to 153.7 °C | CC(C)(C)c1ccc2c(c1)CCc1c(O)cc(O)cc1S2 [Example 137]
30 | 225.7 to 227.4 °C | CCC1C(=O)c2cc(O)c(O)cc2Sc2ccc(-c3cccs3)cc21 (stereo not shown) [Example 162]
31 | 170.3 to 172 °C | O=C1Cc2cc(-c3ccccc3)ccc2Oc2cc(O)cc(O)c21 [Example 54]
32 | 197.7 to 200.8 °C | O=C1Cc2ccc(-c3ccc(OC(F)(F)F)cc3)cc2Oc2cc(O)cc(O)c21 [Example 97]
33 | 240.1 to 246.1 °C | O=C1Cc2cc(-c3cccs3)ccc2Sc2cc(O)cc(O)c21 [Example 76]
34 | > 250 °C (dec.) | O=C1Cc2cc(-c3ccc(-c4ccccc4)cc3)ccc2Oc2cc(O)cc(O)c21 [Example 79]
35 | 243.5 to 248.4 °C (dec.) | O=C1Cc2cc(-c3ccco3)ccc2Sc2cc(O)cc(O)c21 [Example 84]
36 | 183 to 184.7 °C | O=C1Cc2ccc(-c3cccc(C(F)(F)F)c3)cc2Oc2cc(O)cc(O)c21 [Example 73]
37 | 241 to 247.08 °C | O=CNc1cccc(-c2ccc3c(c2)CC(=O)c2c(O)cc(O)cc2O3)c1 [Example 75]
38 | 181.1 to 184.9 °C | Oc1cc(O)c2c(c1)Sc1ccc(Cl)cc1CC2 [Example 26]
39 | 188.3 to 191.4 °C | Oc1cc(O)c2c(c1)Oc1ccc(-c3cccs3)cc1CC2 [Example 111]
40 | 171 to 172.7 °C | O=C1Cc2cc(-c3ccco3)ccc2Oc2cc(O)cc(O)c21 [Example 57]
41 | 169.1 to 174.9 °C | Oc1cc(O)c2c(c1)Oc1cc(CCc3ccccc3)ccc1CC2 [Example 108]
42 | 208 to 213.7 °C | ON=C1Cc2ccccc2Oc2cc(O)cc(O)c21 [Example 24]
43 | 212.6 to 215.7 °C | O=C1Cc2cc(-c3ccc(O)cc3O)ccc2Oc2cc(O)cc(O)c21 [Example 77]

Row | melting point | Compound
44 | 121 to 123 °C | CCCc1ccc2c(c1)CC(=O)c1c(O)cc(O)cc1O2 [Example 47]
45 | 157.6 to 157.9 °C | CCCC(=O)c1ccc2c(c1)CCc1c(O)cc(O)cc1O2 [Example 128]
46 | 237.4 to 238.6 °C | N#Cc1ccc2c(c1)CCc1c(O)cc(O)cc1S2 [Example 29]
47 | 174 to 175 °C | Cc1ccc(-c2ccc3c(c2)CC(=O)c2c(O)cc(O)cc2O3)cc1 [Example 60]
48 | 199.9 to 201.4 °C | O=C1Cc2ccc(-c3cccc(Cl)c3)cc2Oc2cc(O)cc(O)c21 [Example 69]
49 | 228.3 to 230 °C | Nc1cccc(-c2ccc3c(c2)Oc2cc(O)cc(O)c2C(=O)C3)c1 [Example 74]
50 | 119.8 to 121.7 °C | CCCCC(=O)c1ccc2c(c1)CCc1c(O)cc(O)cc1O2 [Example 130]
51 | 199.6 to 201.8 °C | O=[N+]([O-])c1cccc(-c2ccc3c(c2)CCc2c(O)cc(O)cc2O3)c1 [Example 120]
52 | 270.3 to 271.9 °C | CCC1C(=O)c2cc(O)c(O)cc2Sc2cc(-c3cccs3)ccc21 (stereo not shown) [Example 155]
53 | 124 to 125.8 °C | O=C1Cc2cc(-c3ccccc3)ccc2Oc2cc(O)c(O)c(O)c21 [Example 88]
54 | 228.4 to 230.8 °C | CC(=O)c1cc(-c2ccc3c(c2)CC(=O)c2c(O)cc(O)cc2O3)ccc1C [Example 67]
55 | 227.6 to 228.1 °C | O=C1Cc2ccc(-c3cccs3)cc2Oc2cc(O)cc(O)c21 [Example 5, 3-(2-Thiophene)-7,9-dihydroxy-10,11-dihydrodibenz[b,f]oxepin-10-one]
56 | 161.6 to 163.9 °C | CSc1ccc2c(c1)CCc1c(O)cc(O)cc1S2 [Example 2, 8-Methylthio-10,11-dihydrodibenzo[b,f]thiepin-1,3-diol]
57 | 190.8 to 195.3 °C | O=C1Cc2cc(-c3ccccc3)ccc2Sc2cc(O)cc(O)c21 [Example 78]
58 | 179.6 to 180.4 °C | Oc1cc(O)c2c(c1)Oc1cc(-c3ccccc3)ccc1CC2 [Example 7, 7-Phenyl-10,11-dihydrodibenz[b,f]oxepin-1,3-diol]
